Results reported in patent publication EP0072987A1 (priority 1981, dated 1983).
“And” between values parts separate entries of the source, which are not always exact repeats. Identical values can stand only once.

System: Tumorart PS 2684
Set-up: species or system Mäusen
Details: in vivo

Structure (SMILES): O=P1(N(CC2CO2)CC2CO2)OCCCN1CC1CO1 (centres unmarked) [Beispiel 1, 2H-1,3,2-Oxazaphosphorin, 2-(bis-glycidyl)aminotetrahydro-2-oxid-3-glycidyl-]
- T/C-Wert: 158 and 132

Structure (SMILES): CN(CC1CO1)P1(=O)OCCCN1CC(Cl)CO (centres unmarked) [Beispiel 2, 2H-1,3,2-Oxazaphosphorin, 2-(glycidyl-methyl)amino-2-oxid-3-(3-hydroxy-2-chloro)-propyl- . tetrahvdro -]
- T/C-Wert: 158 and 134
